Measurements reported in patent publication US20100048657A1, “CONTROL OF MALIGNANT CELLS PROLIFERATION THROUGH THE INHIBITION OF CASEIN KINASE 2” (CLEVELAND STATE UNIVERSITY, priority 2006, published 2010).

Tested on: platelets from MEG-01 cells
Experiment: Activation and function of platelets produced by treated MEG-01 cultures (flow cytometry, clot SEM)
Assay type: cell-based, human
Settings: for function of platelets obtained in culture: platelets released from treated MEG-01 cells
Method: Platelets were also separated from the megakaryocytic cells, by differential centrifugation (Zunino et al., 2001), considering the big size difference between these cells (1-5 μm for platelets and 35-150 μm for megakaryocytic cell line MEG-01) and analyzed separately. Suspension cells were centrifuged first at 100 g to 150 g for 15 minutes, and then the platelets-rich supernatant was kept and centrifuged again at 800 g for 15 minutes. The platelets pellet was resuspended in the appropriate buffer (Tyrode's buffer, pH 7.4), for analysis. For impeding artefactual aggregation of platelets in the control, EDTA and RGDS or RGD were added in the cell suspension from the beginning of the centrifugations. Therefore the control was the inactivated platelets. Special caution was used in order to avoid as much as possible artefactual activation of the control, therefore centrifugations were done at room temperature, no unnecessary washing, no vortexing, gentle removal of supernatants.
Monoclonal antibody PAC-1 recognizes an epitope on the glycoprotein αIIbβ3 of activated platelets. PAC-1 binds only to the activated platelets, and so is very specific. PAC-1 will not bind EDTA and RGD or RGDS treated platelets (Shattil et al., 1987; Shattil et al., 1985; Shattil and Leavitt, 2001).
10 mg/ml RGD or RGDS and 100 mM EDTA were used for negative control (inactivated) on resting platelets.
PAC-1-FITC was purchased from Becton Dickinson Immunocytometry Systems, San Jose, Calif., USA. 20 μl PAC-1-FITC were used for 5 μl fresh platelets suspension, in Tyrode's buffer with CaCl2, as recommended for whole blood by the provider. Different agonists were used, like 1 μg/ml TRAP, 100 nM PMA, as final concentrations (Chen et al., 2004). Activation time was 10-15 minutes.
BD Biosciences protocol for staining was used, with incubation for 30 minutes, in dark, at room temperature.
CD62P is a monoclonal antibody that recognizes an epitope on P-Selectin. P-Selectin is exposed as response to agonist and is a specific sign of platelet activation. 20 μl CD62P-FITC were used for 5 μl fresh platelets suspension, in Tyrode's buffer with CaCl2. Different agonists were used, like 1 μg/ml TRAP, 100 nM PMA or 20 μM ADP as final concentrations. Activation time was 10 minutes. The staining volume was chosen by titration, small volumes giving better staining. Incubation was done in dark at room temperature for 30 minutes, as recommended by BD Biosciences. These assays were done on fresh platelets.
Human fibrinogen was conjugated with Alexa Fluor 488 fluorochrome (F-13191, from Molecular Probes, OR, USA) following recommended Molecular Probes procedure, with the modification that instead the column step, a dialysis step was chosen, in order to obtain a better attachment of dye molecules to fibrinogen. Final concentration of fibrinogen conjugated Alexa Fluor 488 was determined spectrophotometrically. For platelet activation, different agonists were used, like 1 μg/ml TRAP, 100 nM PMA or 20 μM ADP as final concentrations. Activation time was 10-15 minutes. 300 nM labeled fibrinogen was incubated as a final concentration with platelets suspension for 30 minutes, in dark, at room temperature. Fresh platelets were used.
Platelets expose PS when activated and undergo shape change. They will stain positive for AnnexinV (a marker of PS exposure) and will move up on the SSC, FSC as a result of the shape change. For this assay, AnnexinV-FITC from BDBiosciences was used, as recommended by the manufacturer with the specification that the reaction volumes were decreased. Incubation was done in dark, at room temperature for 30 minutes, after activation for 10 minutes of platelets with agonist (like 1 μg/ml TRAP, 100 nM PMA or 20 μM ADP as final concentrations).
Cell preparation and pictures were done at the Microscopy Core Facility Cleveland Clinic. Cells were grown for 4 days with DMAT 10 μM and then collected by differential centrifugation. […]

[1] = platelets from 10 μM treatment, agonist TRAP

Row | SMILES | platelet shape change (agonists: human thrombin, TRAP, ADP, PMA) | clot formation by platelets (platelets from 10 μM treatment, activated with 0.5 U/ml thrombin) | P-Selectin exposure of activated platelets [1] | PAC-1 staining of activated platelets [1] | fibrinogen binding of activated platelets [1] | function of platelets obtained in culture
1 | CN(C)c1nc2c(Br)c(Br)c(Br)c(Br)c2[nH]1 [DMAT, 2-dimethylamino-4,5,6,7-tetrabromo-1H-benzimidazole] | capable of undergoing shape change in response to agonists | form a fibrin clot | expose P-Selectin | stain positive for PAC-1 | bind fibrinogen | functional
2 | Brc1c(Br)c(Br)c2[nH]nnc2c1Br [TBB, 4,5,6,7-tetrabromobenzotriazole] |  |  |  |  |  | functional
